In ChEMBL document CHEMBL3400030, “Synthesis and biological evaluation of nonionic substrate mimics of UDP-Galp as candidate inhibitors of UDP galactopyranose mutase (UGM)” (Bioorg Med Chem Lett, 2015):

Columns and labels:
[1] = tested on: Mycobacterium tuberculosis; test: Inhibition of Mycobacterium tuberculosis UGM assessed as conversion of UDP-Galf into UDP-Galp at 500 uM by HPLC method; set-up: scale not given: the % may be the effect or the level left
[2] = tested on: Mycobacterium tuberculosis; test: Inhibition of Mycobacterium tuberculosis UGM assessed as inhibition of conversion of UDP-Galf into UDP-Galp at 500 uM by HPLC method

Structure (SMILES) | Activity [1] | inhibition [2]
O=c1ccn(C[C@@H](O)[C@@H](O)[C@H](O)[C@H](CO)O[C@@H]2O[C@H](CO)[C@H](O)[C@H](O)[C@H]2O)c(=O)[nH]1 | 39% | 28%
O=c1ccn(C[C@@H](O)[C@@H](O)[C@H](O)[C@H](CO)O[C@H]2O[C@H](CO)[C@H](O)[C@H](O)[C@H]2O)c(=O)[nH]1 | 47% | 30%
